According to PubChem BioAssay (NCI):
Several values for one entry are separate records, joined by “and”; a condition that tells them apart may be missing. Equal entries are not always repeated.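 Test compounds were applied to cells in 96-well plates for 48 hours at 5 doses. GI50: concentration for 50% inhibition of growth. TGI denotes the concentration required for complete inhibition of growth.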

What was measured:
Assay in all cases: growth of human tumour cells (NCI), 48 h
[1] = system: U251 CNS
[2] = system: MCF7 breast
[3] = system: KM12 colon
[4] = system: OVCAR-5 ovarian
[5] = system: BT-549 breast
[6] = system: SW-620 colon
[7] = system: UACC-62 melanoma
[8] = system: SNB-19 CNS
[9] = system: SK-MEL-2 melanoma
[10] = system: SN12C renal
[11] = system: OVCAR-4 ovarian
[12] = system: NCI-H23 lung

SMILES: O/N=C1/C2CC3CC1(c1ccccc1)CC(/C3=N/O)/C2=N\O (stereo unspecified)
- TGI [1]: > 100 µM
- TGI [2]: > 100 µM
- TGI [3]: > 100 µM
- TGI [4]: > 100 µM
- TGI [5]: > 100 µM
- TGI [6]: > 100 µM
- TGI [7]: > 100 µM
- TGI [8]: > 100 µM
- TGI [9]: > 100 µM
- TGI [10]: > 100 µM
- TGI [11]: > 100 µM
- TGI [12]: > 100 µM

SMILES: Oc1nc(N/N=C/c2ccccc2)[nH]c1/C=C1\C=Nc2ccccc21
- TGI [1]: 51.3 µM
- TGI [2]: > 100 µM
- TGI [3]: > 100 µM
- TGI [4]: > 100 µM
- TGI [5]: > 100 µM
- TGI [6]: > 100 µM
- TGI [7]: > 100 µM
- TGI [8]: > 100 µM
- TGI [9]: > 100 µM
- TGI [10]: > 100 µM
- TGI [11]: > 100 µM
- TGI [12]: > 100 µM

SMILES: C/C=C/[C@H]1O[C@@](O)([C@@H](C)[C@H](O)[C@H](C)[C@H]2OC(=O)/C(OC)=C/C(C)=C/[C@@H](C)[C@@H](O)[C@@H](CC)[C@@H](O)[C@H](C)C/C(C)=C/C=C/[C@@H]2OC)C[C@H](OC2CC(O)C(OC(N)=O)C(C)O2)[C@@H]1C (stereo partly specified)
- TGI [1]: 17.4 µM
- TGI [2]: 16.9 µM
- TGI [3]: 17.4 µM
- TGI [4]: 25.7 µM
- TGI [5]: 19.7 µM
- TGI [6]: 15.3 µM
- TGI [7]: 13.2 µM
- TGI [8]: 23.7 µM
- TGI [9]: 3.22 µM
- TGI [10]: 23.5 µM
- TGI [11]: 20.8 µM
- TGI [12]: 26.7 µM

SMILES: COc1ccc2c(-c3ccc(OCCN(C)C)cc3)c(Oc3ccc(Cl)cc3)c(=O)oc2c1
- TGI [1]: 14.5 µM
- TGI [2]: 6.12 µM
- TGI [3]: 25.1 µM
- TGI [4]: 36.8 µM
- TGI [5]: 37.6 µM
- TGI [6]: > 46.8 µM
- TGI [7]: 7.52 µM
- TGI [8]: 33.6 µM
- TGI [9]: 19.1 µM
- TGI [10]: > 53.3 µM
- TGI [11]: > 95.7 µM
- TGI [12]: > 54.2 µM

SMILES: OC(CCN1CCN(CCOC(c2ccccc2)c2ccccc2)CC1)c1ccc(Br)cc1 (stereo unspecified)
- TGI [1]: 25.1 µM
- TGI [2]: 31.8 µM
- TGI [3]: 36.9 µM
- TGI [4]: 28.3 µM
- TGI [5]: 26.1 µM
- TGI [6]: 44.5 µM
- TGI [7]: 22.8 µM
- TGI [8]: 30.3 µM
- TGI [9]: 25.6 µM
- TGI [10]: 25.2 µM
- TGI [11]: 38.6 µM
- TGI [12]: 28 µM

SMILES: Cc1nn(C(=O)c2ccncc2)c2c1C(c1cccc([N+](=O)[O-])c1)SC(N)=N2 (stereo unspecified)
- TGI [1]: > 10 µM
- TGI [2]: > 10 µM
- TGI [3]: > 10 µM
- TGI [4]: > 10 µM
- TGI [5]: > 10 µM
- TGI [6]: > 10 µM
- TGI [7]: > 10 µM
- TGI [8]: > 10 µM
- TGI [9]: > 10 µM
- TGI [10]: > 10 µM
- TGI [11]: > 10 µM
- TGI [12]: > 10 µM

SMILES: COC1=CC(=O)c2c(O)c3c(c(O)c2C1=O)C[C@](C)(O)C[C@@H]3O
- TGI [1]: 14.6 µM
- TGI [2]: 16.3 µM
- TGI [3]: 19 µM
- TGI [4]: 27.8 µM
- TGI [5]: 22.5 µM
- TGI [6]: 14 µM
- TGI [7]: 4.66 µM
- TGI [8]: 14.7 µM
- TGI [9]: 14.3 µM
- TGI [10]: 13 µM
- TGI [11]: 13.1 µM
- TGI [12]: 6.7 µM

SMILES: CC(C)C(C/C=C1/CC(CO)(COC(=O)C2CCCCC2)OC1=O)C(C)C (stereo unspecified)
- TGI [1]: 43.9 µM
- TGI [2]: 36.3 µM
- TGI [3]: 55.3 µM
- TGI [4]: 40.7 µM
- TGI [5]: 54.8 µM
- TGI [6]: 42.5 µM
- TGI [7]: > 100 µM
- TGI [8]: 29.8 µM
- TGI [9]: > 100 µM
- TGI [10]: 31.9 µM
- TGI [11]: 41.4 µM
- TGI [12]: 35.9 µM

SMILES: COC(=O)/C(=C\c1ccco1)P(=O)(OC)OC
- TGI [1]: > 100 µM
- TGI [2]: > 100 µM
- TGI [3]: > 100 µM
- TGI [4]: 31.8 µM
- TGI [5]: > 100 µM
- TGI [6]: > 100 µM
- TGI [7]: > 100 µM
- TGI [8]: > 100 µM
- TGI [9]: 83.4 µM
- TGI [10]: > 100 µM
- TGI [11]: 33.7 µM
- TGI [12]: > 100 µM

SMILES: Cc1ccc(OCC2OC(n3cnc4c(Cl)ncnc43)CC2Oc2ccc(C)cc2)cc1 (stereo unspecified)
- TGI [1]: 11 µM and > 50.4 µM
- GI50 [2]: 4.44 µM and 21 µM
- TGI [2]: 12.6 µM and > 58.8 µM
- GI50 [3]: 2.42 µM and 14.3 µM
- TGI [3]: 6.57 µM and 42 µM
- TGI [4]: 68.5 µM and > 79.7 µM
- TGI [5]: 40 µM and 49.9 µM
- TGI [6]: > 55.4 µM
- GI50 [7]: 9.01 µM and 22.8 µM
- TGI [7]: 25.9 µM and > 59 µM
- GI50 [8]: 2.8 µM and 17 µM
- TGI [8]: 6.86 µM and 33.4 µM
- TGI [9]: 30.2 µM and 33.8 µM
- GI50 [10]: 7.49 µM and 17.5 µM
- TGI [10]: 15.3 µM and 36.6 µM
- GI50 [11]: 2.57 µM and 10.6 µM
- TGI [11]: 13.1 µM and > 56.6 µM
- GI50 [12]: 3.03 µM and 11.9 µM
- TGI [12]: 7.99 µM and 27.8 µM

SMILES: CN(CCc1ccc(Cl)c(Cl)c1)CCN(C)CCN1CCCC1
- TGI [1]: 24.4 µM
- TGI [2]: 26.3 µM
- TGI [3]: 24.8 µM
- TGI [4]: 43.3 µM
- TGI [5]: 36.2 µM
- TGI [6]: 31.2 µM
- TGI [7]: 3.74 µM
- TGI [8]: 43.3 µM
- TGI [9]: 10 µM
- TGI [10]: 40.2 µM
- TGI [11]: > 100 µM
- TGI [12]: 38.3 µM

SMILES: N=C(N)SCCCN
- TGI [1]: 24.6 µM
- TGI [2]: > 59.9 µM
- TGI [3]: 59.6 µM
- TGI [4]: > 100 µM
- TGI [5]: > 60.9 µM
- TGI [6]: > 100 µM
- TGI [7]: 35 µM
- TGI [8]: > 82.7 µM
- TGI [9]: 32.2 µM
- TGI [10]: 69.8 µM
- TGI [11]: > 30.9 µM
- TGI [12]: 41.2 µM

SMILES: CC(C)(C)OC(=O)NCC(=O)NC1C/C(=N\O)c2sccc21 (stereo unspecified)
- TGI [1]: > 100 µM
- TGI [2]: > 100 µM
- TGI [4]: > 100 µM
- TGI [5]: > 100 µM
- TGI [6]: > 100 µM
- TGI [7]: > 100 µM
- TGI [8]: > 100 µM
- TGI [9]: > 100 µM
- TGI [10]: > 100 µM
- TGI [11]: > 100 µM
- TGI [12]: > 100 µM

SMILES: COc1nc(OC)nc(-c2cccc(F)c2)n1
- TGI [1]: 31 µM
- TGI [2]: 45.1 µM
- TGI [3]: 31.7 µM
- TGI [4]: 28.5 µM
- TGI [5]: 29.7 µM
- TGI [6]: 40.6 µM
- TGI [7]: 22 µM
- TGI [8]: 32.4 µM
- TGI [9]: 38.6 µM
- TGI [10]: 31.5 µM
- TGI [11]: 39.6 µM
- TGI [12]: 29.7 µM

SMILES: CC1(C)CCCCCCCCCC(C)(CCCCCCCCCCCCO)C1=O (stereo unspecified)
- TGI [1]: 33 µM
- TGI [2]: 30.5 µM
- TGI [3]: 31.1 µM
- TGI [4]: 34.1 µM
- TGI [5]: 30.4 µM
- TGI [6]: 32.5 µM
- TGI [7]: 33.7 µM
- TGI [8]: 26.1 µM
- TGI [9]: 32.7 µM
- TGI [10]: 31.4 µM
- TGI [11]: 32.7 µM
- TGI [12]: 33.7 µM

SMILES: COc1cc(C(c2cccc3ccccc23)N2C(=O)CCC2C(=O)NCc2ccccc2)cc(OC)c1OC (stereo unspecified)
- TGI [1]: > 100 µM
- TGI [2]: > 100 µM
- TGI [3]: > 100 µM
- TGI [4]: > 100 µM
- TGI [5]: > 100 µM
- TGI [6]: > 100 µM
- TGI [7]: > 100 µM
- TGI [8]: > 100 µM
- TGI [9]: > 100 µM
- TGI [10]: > 100 µM
- TGI [11]: > 100 µM
- TGI [12]: > 100 µM

SMILES: CCN1CCCC(Nc2cc(C)nc(/N=C(/N)Nc3ccc(Cl)c(Cl)c3)n2)C1 (stereo unspecified)
- TGI [1]: 2.6 µM
- TGI [2]: 3.59 µM
- TGI [3]: 3.46 µM
- TGI [4]: 8.11 µM
- TGI [5]: 3.29 µM
- TGI [7]: 3.31 µM
- TGI [8]: 5.59 µM
- TGI [9]: 4.04 µM
- TGI [10]: 6.64 µM
- TGI [11]: 4.97 µM
- TGI [12]: 4.81 µM

SMILES: Cc1c(C#N)c2nnn(-c3ccccc3)c(=O)n2c1-c1ccccc1
- TGI [1]: > 100 µM
- TGI [2]: > 66.6 µM
- TGI [3]: 29.1 µM
- TGI [4]: > 100 µM
- TGI [5]: > 100 µM
- TGI [6]: > 100 µM
- TGI [7]: > 100 µM
- TGI [8]: > 100 µM
- TGI [9]: > 72.9 µM
- TGI [10]: > 56.8 µM
- TGI [11]: > 100 µM
- TGI [12]: > 77.6 µM
